Reference: patent US20140248655A1, “QUANTITATIVE SOFT AGAR COLONY FORMATION ASSAY USING TETRAZOLIUM THAT GENERATES WATER-SOLUBLE FORMAZAN” (KAGOSHIMA UNIVERSITY, priority 2011, published 2014)

Tested on: DU145 cells
Experiment: Method of the invention: soft agar colony formation assay with WST-1, DU145
Format: cell-based, human
Source text: The […] compounds used may be able to function as ideal antitumor agents that have PCA-1 inhibitory effects, fewer (and less severe) side effects (cytotoxicity), and high tumor-shrinking effects.

`CC(=O)O[C@H]1C(=O)[C@@]2(C)[C@H]([C@H](OC(=O)c3ccccc3)[C@]3(O)C[C@H](OC(=O)[C@H](O)[C@@H](NC(=O)c4ccccc4)c4ccccc4)C(C)=C1C3(C)C)[C@]1(OC(C)=O)CO[C@@H]1C[C@@H]2O` [Paclitaxel] was tested, and the “cell viability (%)” value (DU145 10,000 cells/well, culture 1 week, concentrations of FIG. 2) was “lowered by Paclitaxel as an anticancer agent in a concentration-dependent manner” and the “OD value (OD405) versus number of seeded cells” value (medium containing 100 μmol of Paclitaxel, culture 7 days, FIG. 1) was “the OD value was low, and it was not correlated with the number of cells”.
